Assay results: patent US11957693B2, “Combination MCL-1 inhibitors with anti-cancer agents” (Gilead Sciences, Inc., priority 2021, dated 2024)

How the values were obtained:
Type in all cases: cell-based
[1] = tested on: HCC1187 (TNBC); assay: Cell viability combination assay (Cell Titer Glo, Bliss synergy matrix), compound A + SN-38; details: HCC1187 1st Replicate (n = 5); SN-38 0.0000 μM; Compound A μM = c0 of row; 72 h
Description: (§1) Cells were passaged according to ATCC guidelines with 0.25% Trypsin/EDTA (1× GIBCO-25200).
(§2) Calculated values were compared to experimental results generated in the sixty-three-concentration checkerboard. Synergy or antagonism scores were generated depending on whether the observed growth inhibition was greater than or less than the calculated values, respectively.
(§3) Data for combination assays is presented in three formats.

[2] = tested on: HCC1806; assay: Cell viability combination assay (Cell Titer Glo, Bliss synergy matrix), paclitaxel 4 h pretreatment then compound A; details: for Synergy Results (95% CI): Paclitaxel 0.000 μM
Method: as §1
Viability assessments were performed using Cell Titer Glo™ (Promega #G9241) according to manufactures microwell plate protocol and read for luminescence on Synergy Neo2 plate reader.
For synergy matrix assays, TNBC cell lines were seeded 10,000 cells per well in clear-bottomed white 96-well plates (Corning #3909) in 100 μL of recommended cell culture medium. Plates were incubated at 37° C. and 100% RH for 20 hours prior to compound exposure.
Cells were then exposed to compound A with the same checkerboard matrix using D300 dispenser and incubated for 48 hours prior to measurement of viability by Cell Titer Glo.
as §2
These differences were summed up across the whole checker-board (sixty-three wells) to give cumulative synergy and antagonism scores with units of μM^2% to reflect the 2D surface of the dose responses.
as §3

[3] = tested on: panel of breast cancer cell lines; assay: 72-hour in vitro proliferation combination assay, compound A with targeted agents and chemotherapies (Example 3, Table 21)
[4] = Homo sapiens, read-out: Percent Inhibition
[5] = BT-549 cell line, compound A × listed agent, 72-hour in vitro proliferation assay
[6] = BT-474 cell line, compound A × listed agent, 72-hour in vitro proliferation assay
[7] = KPL-1 cell line, Compound A × named agent, 72-hour proliferation
[8] = MCF7, combination with compound A, 72-hour proliferation
[9] = MDA-MB-175-VII, combination with compound A, 72-hour proliferation
[10] = MDA-MB-231, combination with compound A, 72-hour proliferation
[11] = MDA-MB-361, combination with compound A, 72-hour proliferation
[12] = MDA-MB-436, combination with compound A, 72-hour proliferation
[13] = MDA-MB-453, combination with compound A, 72-hour proliferation
[14] = MDA-MB-468, combination with compound A, 72-hour proliferation
[15] = SK-BR-3 cell line, combination Compound A × listed agent, 72-hour proliferation
[16] = SUM159PT cell line, combination Compound A × listed agent, 72-hour proliferation
[17] = T47D cell line, combination Compound A × listed agent, 72-hour proliferation
[18] = ZR-75-1 cell line, combination Compound A × listed agent, 72-hour proliferation
[19] = ZR-75-30 cell line, combination Compound A × listed agent, 72-hour proliferation

SMILES: COc1nn(C)cc1C(=O)N[S@@]1(=O)=NC(=O)c2ccc3c(c2)N(C[C@@H]2CC[C@H]2[C@@H](OC)CCC[C@H](C)C1)C[C@@]1(CCCc2cc(Cl)ccc21)CO3 [Compound A]
- Percent Inhibition [1]: 99.2%
- Synergy Results (95% CI) ([2]; Compound A 0.004 μM): 0.0
- Synergy Results (95% CI) ([2]; Compound A 1.000 μM): 0.0
- Synergy Results (95% CI) ([2]; Compound A 3.000 μM): 0.0
- Synergy Results (95% CI) ([2]; Compound A […]): 0.0
- inhibition at 0.004 µM [2, 4]: 0.7%
- inhibition at 1 µM [2, 4]: 8.6%
- inhibition at 3 µM [2, 4]: 17.9%

SMILES: N.N.[Cl][Pt][Cl] [Cisplatin]
- Best CI Level ([3]; AU565 cell line, compound A × listed agent, 72-hour in vitro proliferation assay): 35
- Best CI Level ([3]; BT-20 cell line, compound A × listed agent, 72-hour in vitro proliferation assay): 65
- Best CI Level [3, 5]: 160
- Best CI Level ([3]; CAL-120 cell line, compound A × listed agent, 72-hour in vitro proliferation assay): 35
- Best CI Level ([3]; CAL-148 cell line, compound A × listed agent, 72-hour in vitro proliferation assay): 140
- Best CI Level ([3]; DU-4475 cell line, compound A × listed agent, 72-hour in vitro proliferation assay): 40
- Best CI Level ([3]; HCC1143 cell line, compound A × listed agent, 72-hour in vitro proliferation assay): 55

SMILES: CCOc1cc2ncc(C#N)c(Nc3ccc(OCc4ccccn4)c(Cl)c3)c2cc1NC(=O)/C=C/CN(C)C [Neratinib]
- Bliss Volume [3, 6]: 28.98
- HSA volume [3, 6]: 20.36
- Loewe Volume [3, 6]: 18.83
- Synergy Score [3, 6]: 39.01
- Best CI [3, 5]: 0.31
- Bliss Volume [3, 5]: 17.92
- HSA volume [3, 5]: 13.17
- Loewe Volume [3, 5]: 13.98
- Synergy Score [3, 5]: 25.15
- Best CI [3, 7]: 0.55
- Bliss Volume [3, 7]: 9.37
- HSA volume [3, 7]: 2.11
- Loewe Volume [3, 7]: 2.47
- Synergy Score [3, 7]: 9.97
- Best CI [3, 8]: 0.44
- Bliss Volume [3, 8]: 20.28
- HSA volume [3, 8]: 8.47
- Loewe Volume [3, 8]: 8.60
- Best CI [3, 9]: 0.64
- Bliss Volume [3, 9]: 18.28
- HSA volume [3, 9]: 8.80
- Loewe Volume [3, 9]: 7.95
- Synergy Score [3, 9]: 11.07
- Bliss Volume [3, 10]: 6.82
- HSA volume [3, 10]: 2.87
- Loewe Volume [3, 10]: 5.05
- Synergy Score [3, 10]: 4.59
- Bliss Volume [3, 11]: 8.05
- HSA volume [3, 11]: 9.22
- Loewe Volume [3, 11]: 8.69
- Synergy Score [3, 11]: 10.96
- Best CI [3, 12]: 0.26
- Bliss Volume [3, 12]: 5.24
- HSA volume [3, 12]: −0.69
- Loewe Volume [3, 12]: 0.79
- Synergy Score [3, 12]: 4.11
- Best CI [3, 13]: 0.35
- HSA volume [3, 13]: 10.24
- Loewe Volume [3, 13]: 8.51
- Synergy Score [3, 13]: 16.63
- Bliss Volume [3, 14]: 34.71
- Loewe Volume [3, 14]: 9.11
- Synergy Score [3, 14]: 19.05
- Best CI [3, 15]: 0.12
- Bliss Volume [3, 15]: 28.46
- HSA volume [3, 15]: 11.39
- Synergy Score [3, 15]: 22.77
- Best CI [3, 16]: 0.17
- Bliss Volume [3, 16]: 15.93
- HSA volume [3, 16]: 11.51
- Loewe Volume [3, 16]: 12.90
- Synergy Score [3, 16]: 22.98
- Bliss Volume [3, 17]: 7.67
- HSA volume [3, 17]: 2.55
- Loewe Volume [3, 17]: 5.95
- Synergy Score [3, 17]: 11.73
- Best CI [3, 18]: 0.86
- Bliss Volume [3, 18]: 13.55
- HSA volume [3, 18]: 6.49
- Loewe Volume [3, 18]: 7.51
- Synergy Score [3, 18]: 10.39
- Best CI [3, 19]: 0.41
- Bliss Volume [3, 19]: 32.84
- HSA volume [3, 19]: 16.20
- Loewe Volume [3, 19]: 14.61
- Synergy Score [3, 19]: 30.49
